Drawing on patent publication US20210269434A1, “TRICYCLIC COMPOUNDS AS INHIBITORS OF KRAS” (Incyte Corporation, priority 2020, published 2021), this text covers IC50 for 20 compounds.

Assay [1] relates to MIA PaCa-2 (KRAS G12C) cells. Description: Cellular pERK HTRF assay (KRAS_G12C pERK). The settings on record: Homo sapiens, MIA PaCa-2, 4 hours incubation, read-out: G12C_pERK. The format is cell-based, human. The essentials:
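Phospho-ERK1/2 HTRF readout (665 and 620 nm) in lysed MIA PaCa-2 cells, antibodies incubated overnight at room temperature. Cells seeded the day before and treated with G12C compounds for 4 h at 37 °C; IC50 fitted to percent inhibition against log inhibitor concentration.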

In assay [2] the target is KRAS G12C (Homo sapiens, UniProt P01116, G12C). In words: GDP-GTP exchange assay (KRAS_G12C exchange). Conditions: bodipy-GDP loaded KRAS G12C 2.5 nM, SOS1 150 nM, GppNHp; 2 hours pre-incubation, 2 hours reaction; read-out: G12C_exchange. Format: biochemical. A digest of the protocol: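 Fluorescence exchange of bodipy-GDP for GppNHp, SOS1-driven, read at 485/520 nm; IC50 from four-parameter variable-slope fit. Both mutants used 2.5 nM final labelled protein and a 2 h compound pre-incubation. G12C reaction had 500 uM GppNHp and 150 nM SOS1 for 2 h; G12D ran 4 h.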
KRAS G12C, sequence (P01116 1-188 isoform P01116-2 G12C): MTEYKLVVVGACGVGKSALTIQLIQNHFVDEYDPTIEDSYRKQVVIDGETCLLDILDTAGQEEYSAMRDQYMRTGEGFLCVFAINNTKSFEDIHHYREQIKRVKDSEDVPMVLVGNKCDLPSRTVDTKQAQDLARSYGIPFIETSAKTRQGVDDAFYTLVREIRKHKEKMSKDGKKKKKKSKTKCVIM

Some results are limits rather than exact numbers.

Consider `C=CC(=O)N1CC(n2c(=O)[nH]c3c(=O)n(-c4c(C)ccnc4C(C)C)c4nc(-c5cc(O)cc6ccccc56)c(F)cc4c32)C1` [Example 26, 1-(1-acryloylazetidin-3-yl)-8-fluoro-7-(3-hydroxynaphthalen-1-yl)-5-(2-isopropyl-4-methylpyridin-3-yl)-3,5-dihydro-1H-imidazo[4,5-c][1,8]naphthyridine-2,4-dione], for which the IC50 in assay [1] is 1 to 5 µM; in assay [2], no more than 0.1 µM.
In the case of `C=CC(=O)N1CC(n2c(=O)n(C[C@@H]3CCCN3C)c3c(=O)n(-c4c(C)ccnc4C(C)C)c4nc(-c5cc(O)cc6ccccc56)c(F)cc4c32)C1` [Example 27, (S)-1-(1-acryloylazetidin-3-yl)-8-fluoro-7-(3-hydroxynaphthalen-1-yl)-5-(2-isopropyl-4-methylpyridin-3-yl)-3-((1-methylpyrrolidin-2-yl)methyl)-3,5-dihydro-1H-imidazo[4,5-c][1,8]naphthyridine-2,4-dione], the IC50 in assay [1] was in the range of 1 to 5 µM; in assay [2] it was 0.1 to 1 µM.
For `C=CC(=O)N1C[C@H](n2cnc3c(N4CC(N(C)C)C4)nc4c(F)c(-c5cc(O)cc6ccccc56)c(Cl)cc4c32)C[C@@H]1CC#N` [Example 32, 2-((2R,4R)-1-acryloyl-4-(8-chloro-4-(3-(dimethylamino)azetidin-1-yl)-6-fluoro-7-(3-hydroxynaphthalen-1-yl)-1H-imidazo[4,5-c]quinolin-1-yl)pyrrolidin-2-yl)acetonitrile], in that order: no more than 0.1 µM and no more than 0.1 µM.
On to `C=CC(=O)N1CC[C@H](n2cnc3c(N4CC(N(C)C)C4)nc4c(F)c(-c5ccccc5)c(Cl)cc4c32)C[C@H]1CC#N` [Example 45, 2-((2S,4S)-1-acryloyl-4-(8-chloro-4-(3-(dimethylamino)azetidin-1-yl)-6-fluoro-7-phenyl-1H-imidazo[4,5-c]quinolin-1-yl)piperidin-2-yl)acetonitrile], for which the IC50 in assay [1] and in assay [2] was no more than 0.1 µM in each case.
With `C=CC(=O)N1CC[C@H](n2cnc3c(N4CC(N(C)C)C4)nc4c(F)c(-c5cccc6ccccc56)c(Cl)cc4c32)C[C@H]1CC#N` [Example 46, 2-((2S,4S)-1-acryloyl-4-(8-chloro-4-(3-(dimethylamino)azetidin-1-yl)-6-fluoro-7-(naphthalen-1-yl)-1H-imidazo[4,5-c]quinolin-1-yl)piperidin-2-yl)acetonitrile], the IC50 in assay [1] and in assay [2] was no more than 0.1 µM each time.
Consider `C=CC(=O)N1CC[C@H](n2cnc3c(N4CC(N(C)C)C4)nc4c(F)c(-c5cc(O)ccc5F)c(Cl)cc4c32)C[C@H]1CC#N` [Example 55, 2-((2S,4S)-1-acryloyl-4-(8-chloro-4-(3-(dimethylamino)azetidin-1-yl)-6-fluoro-7-(2-fluoro-5-hydroxyphenyl)-1H-imidazo[4,5-c]quinolin-1-yl)piperidin-2-yl)acetonitrile], for which the IC50 in assay [1] and in assay [2] was no more than 0.1 µM throughout.
On to `C=CC(=O)N1CC[C@H](n2cnc3c(N4CC(N(C)C)C4)nc4c(F)c(-c5ccccc5F)c(Cl)cc4c32)C[C@H]1CC#N` [Example 56, 2-((2S,4S)-1-acryloyl-4-(8-chloro-4-(3-(dimethylamino)azetidin-1-yl)-6-fluoro-7-(2-fluorophenyl)-1H-imidazo[4,5-c]quinolin-1-yl)piperidin-2-yl)acetonitrile], for which the IC50 in assay [1] and in assay [2] was no more than 0.1 µM each time.
In the case of `C=CC(=O)N1CC[C@H](n2cnc3c(N4CC(N(C)C)C4)nc4c(F)c(-c5ccccc5Cl)c(Cl)cc4c32)C[C@H]1CC#N` [Example 57, 2-((2S,4S)-1-acryloyl-4-(8-chloro-7-(2-chlorophenyl)-4-(3-(dimethylamino)-azetidin-1-yl)-6-fluoro-1H-imidazo[4,5-c]quinolin-1-yl)piperidin-2-yl)acetonitrile], the IC50 in assay [1] and in assay [2] was no more than 0.1 µM in each case.
`C=CC(=O)N1CC[C@H](n2cnc3c(N4CC(N(C)C)C4)nc4c(F)c(-c5cccc(F)c5Cl)c(Cl)cc4c32)C[C@H]1CC#N` [Example 58, 2-((2S,4S)-1-acryloyl-4-(8-chloro-7-(2-chloro-3-fluorophenyl)-4-(3-(dimethyl-amino)azetidin-1-yl)-6-fluoro-1H-imidazo[4,5-c]quinolin-1-yl)piperidin-2-yl)acetonitrile]: the IC50 in assay [1] and in assay [2] was no more than 0.1 µM throughout.
`C=CC(=O)N1CC[C@H](n2cnc3c(N4CC(N(C)C)C4)nc4c(F)c(-c5ccc(C)cc5C)c(Cl)cc4c32)C[C@H]1CC#N` [Example 59, 2-((2S,4S)-1-acryloyl-4-(8-chloro-4-(3-(dimethylamino)azetidin-1-yl)-7-(2,4-dimethylphenyl)-6-fluoro-1H-imidazo[4,5-c]quinolin-1-yl)piperidin-2-yl)acetonitrile]: the IC50 in assay [1] and in assay [2] was no more than 0.1 µM in each case.
As to `C=CC(=O)N1CC[C@H](n2cnc3c(N4CC(N(C)C)C4)nc4c(F)c(-c5cc(C)ccc5C)c(Cl)cc4c32)C[C@H]1CC#N` [Example 60, 2-((2S,4S)-1-acryloyl-4-(8-chloro-4-(3-(dimethylamino)azetidin-1-yl)-7-(2,5-dimethylphenyl)-6-fluoro-1H-imidazo[4,5-c]quinolin-1-yl)piperidin-2-yl)acetonitrile], the IC50 in assay [1] and in assay [2] was no more than 0.1 µM throughout.
With `C=CC(=O)N1CC[C@H](n2cnc3c(N4CC(N(C)C)C4)nc4c(F)c(-c5cccc(Cl)c5C)c(Cl)cc4c32)C[C@H]1CC#N` [Example 61, 2-((2S,4S)-1-acryloyl-4-(8-chloro-7-(3-chloro-2-methylphenyl)-4-(3-(dimethyl-amino)azetidin-1-yl)-6-fluoro-1H-imidazo[4,5-c]quinolin-1-yl)piperidin-2-yl)acetonitrile], the IC50 in assay [1] and in assay [2] was no more than 0.1 µM throughout.
For the compound `C=CC(=O)N1C[C@H](n2cnc3c(N4CC(N(C)C)C4)nc4c(F)c(-c5cccc(C)c5C)c(Cl)cc4c32)C[C@@H]1CC#N` [Example 62, 2-((2R,4R)-1-acryloyl-4-(8-chloro-4-(3-(dimethylamino)azetidin-1-yl)-7-(2,3-dimethylphenyl)-6-fluoro-1H-imidazo[4,5-c]quinolin-1-yl)pyrrolidin-2-yl)acetonitrile], the IC50 in assay [1] and in assay [2] was no more than 0.1 µM in each case.
Turning to `C=CC(=O)N1C[C@H](n2cnc3c(N4CC(N(C)C)C4)nc4c(F)c(-c5cccc6ccccc56)c(Cl)cc4c32)C[C@@H]1CC#N` [Example 63, 2-((2R,4R)-1-acryloyl-4-(8-chloro-4-(3-(dimethylamino)azetidin-1-yl)-6-fluoro-7-(naphthalen-1-yl)-1H-imidazo[4,5-c]quinolin-1-yl)pyrrolidin-2-yl)acetonitrile], the IC50 in assay [1] and in assay [2] was no more than 0.1 µM each time.
As for `C=CC(=O)N1CC[C@H](n2cnc3c(N4CC(N(C)C)C4)nc4c(F)c(-c5cccc6c5OCCC6)c(Cl)cc4c32)C[C@H]1CC#N` [Example 65, 2-((2S,4S)-1-acryloyl-4-(8-chloro-7-(chroman-8-yl)-4-(3-(dimethylamino)-azetidin-1-yl)-6-fluoro-1H-imidazo[4,5-c]quinolin-1-yl)piperidin-2-yl)acetonitrile], the IC50 in assay [1] and in assay [2] was no more than 0.1 µM in each case.
For `C=CC(=O)N1CC[C@H](n2cnc3c(N4CC(N(C)C)C4)nc4c(F)c(-c5c(OC)ccc6ccccc56)c(Cl)cc4c32)C[C@H]1CC#N` [Example 66, 2-((2S,4S)-1-acryloyl-4-(8-chloro-4-(3-(dimethylamino)azetidin-1-yl)-6-fluoro-7-(2-methoxynaphthalen-1-yl)-1H-imidazo[4,5-c]quinolin-1-yl)piperidin-2-yl)acetonitrile], the IC50 in assay [1] and in assay [2] was no more than 0.1 µM throughout.
Take `C=CC(=O)N1CC[C@H](n2cnc3c(N4CC(N(C)C)C4)nc4c(F)c(-c5ccc(F)c6ccccc56)c(Cl)cc4c32)C[C@H]1CC#N` [Example 67, 2-((2S,4S)-1-acryloyl-4-(8-chloro-4-(3-(dimethylamino)azetidin-1-yl)-6-fluoro-7-(4-fluoronaphthalen-1-yl)-1H-imidazo[4,5-c]quinolin-1-yl)piperidin-2-yl)acetonitrile]: the IC50 in assay [1] and in assay [2] was no more than 0.1 µM each time.
As to `C=CC(=O)N1CC[C@H](n2cnc3c(N4CC(N(C)C)C4)nc4c(F)c(-c5cccc6cccc(C)c56)c(Cl)cc4c32)C[C@H]1CC#N` [Example 68, 2-((2S,4S)-1-acryloyl-4-(8-chloro-4-(3-(dimethylamino)azetidin-1-yl)-6-fluoro-7-(8-methylnaphthalen-1-yl)-1H-imidazo[4,5-c]quinolin-1-yl)piperidin-2-yl)acetonitrile], the IC50 in assay [1] and in assay [2] was no more than 0.1 µM throughout.
Regarding `C=CC(=O)N1CC[C@H](n2cnc3c(N4CC(N(C)C)C4)nc4c(F)c(-c5cccc6c5OCCO6)c(Cl)cc4c32)C[C@H]1CC#N` [Example 69, 2-((2S,4S)-1-acryloyl-4-(8-chloro-7-(2,3-dihydrobenzo[b][1,4]dioxin-5-yl)-4-(3-(dimethylamino)azetidin-1-yl)-6-fluoro-1H-imidazo[4,5-c]quinolin-1-yl)piperidin-2-yl)acetonitrile], the IC50 in assay [1] and in assay [2] was no more than 0.1 µM each time.
Take `CC#CC(=O)N1CC[C@H](n2cnc3c(N4CC(C)(N(C)C)C4)nc4c(F)c(-c5c(C)c(Cl)cc6[nH]ncc56)c(Cl)cc4c32)C[C@H]1CC#N` [Example 81a, 2-((2S,4S)-1-(but-2-ynoyl)-4-(8-chloro-7-(6-chloro-5-methyl-1H-indazol-4-yl)-4-(3-(dimethyl-amino)-3-methylazetidin-1-yl)-6-fluoro-1H-imidazo[4,5-c]quinolin-1-yl)piperidin-2-yl)acetonitrile]: the IC50 in assay [1] and in assay [2] was no more than 0.1 µM throughout.
